We go through one compound from ChEMBL document CHEMBL1122966, “Compactin (ML-236B) and related compounds as potential cholesterol-lowering agents that inhibit HMG-CoA reductase” (J Med Chem, 1985).

Test [1] has as its target T1, 3-hydroxy-3-methylglutaryl-coenzyme A reductase (Rattus norvegicus, UniProt P51639).
T1 sequence (P51639 whole entry): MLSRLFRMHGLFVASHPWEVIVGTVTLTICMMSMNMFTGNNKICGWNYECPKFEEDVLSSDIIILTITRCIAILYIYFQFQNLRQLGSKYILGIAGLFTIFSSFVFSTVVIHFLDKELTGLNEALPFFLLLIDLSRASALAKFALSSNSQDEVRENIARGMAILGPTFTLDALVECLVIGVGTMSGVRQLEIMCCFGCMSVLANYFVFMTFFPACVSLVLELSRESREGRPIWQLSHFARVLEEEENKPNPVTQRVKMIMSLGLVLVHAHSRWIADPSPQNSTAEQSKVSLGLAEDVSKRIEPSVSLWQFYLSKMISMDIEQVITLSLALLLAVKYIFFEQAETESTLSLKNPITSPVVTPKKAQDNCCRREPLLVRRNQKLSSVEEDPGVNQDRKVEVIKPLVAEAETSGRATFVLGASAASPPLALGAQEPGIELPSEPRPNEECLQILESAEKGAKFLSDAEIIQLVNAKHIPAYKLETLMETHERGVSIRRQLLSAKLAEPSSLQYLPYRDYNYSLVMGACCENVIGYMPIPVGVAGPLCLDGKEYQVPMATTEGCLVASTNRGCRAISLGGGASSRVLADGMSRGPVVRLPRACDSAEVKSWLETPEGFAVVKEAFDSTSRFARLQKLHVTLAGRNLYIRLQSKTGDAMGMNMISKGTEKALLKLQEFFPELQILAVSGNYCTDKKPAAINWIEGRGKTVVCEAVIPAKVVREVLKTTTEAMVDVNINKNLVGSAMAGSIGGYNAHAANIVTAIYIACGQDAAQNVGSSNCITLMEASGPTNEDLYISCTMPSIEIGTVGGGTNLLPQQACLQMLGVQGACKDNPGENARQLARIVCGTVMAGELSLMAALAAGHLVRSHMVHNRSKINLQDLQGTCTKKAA
In words: Binding affinity was determined against purified rat liver HMG-coA reductase enzyme.

Test [2] is filed under the species Homo sapiens. In words: Ability to inhibit cholesterol biosynthesis from [14C]acetate in cultured human skin fibroblasts at the concentration of 1 uM. It is filed as functional.
The species named for test [3] is Homo sapiens. In words: Ability to inhibit cholesterol biosynthesis from [14C]acetate in cultured human skin fibroblasts at the concentration of 10 uM. It is filed as functional.
Test [4] is filed under the species Homo sapiens. In words: Ability to inhibit cholesterol biosynthesis from [14C]acetate in cultured human skin fibroblasts at the concentration of 10 nM. It is filed as functional.
The species named for test [5] is Homo sapiens. In words: Ability to inhibit cholesterol biosynthesis from [14C]acetate in cultured human skin fibroblasts at the concentration of 100 nM. Format: functional.
The species named for test [6] is Homo sapiens. The test can be described thus: Ability to inhibit cholesterol biosynthesis from [14C]acetate in cultured human skin fibroblasts at the concentration of 1 nM. Format: functional.

As for `CC[C@H](C)C(=O)O[C@H]1CCC=C2C=C[C@H](C)[C@H](CC[C@@H]3C[C@@H](O)CC(=O)O3)[C@H]21` [MEVASTATIN], the Ki (usually the dissociation constant of the complex between target and ligand, obtained from inhibition or displacement) in test [1] was roughly 1 nM. Further, in the test listed under Homo sapiens [2], the inhibition (in general, the relative decrease from the control value, in per cent) at 1 µM was 95%. Testing at 10 µM in the test listed under Homo sapiens [3] gave an inhibition of 100%. In addition, the inhibition at 0.01 µM in the test filed under Homo sapiens [4] came out at 80%. In the test listed under Homo sapiens [5], this compound showed an inhibition at 0.1 µM of 90%. The inhibition at 0.001 µM in the test listed under Homo sapiens [6] amounted to 50%.
